Literature values in US20130133101A1, “PLANTS RESISTANT TO PATHOGENS AND METHODS FOR PRODUCTION THEREOF” (GENOPLANTE-VALOR, priority 2010, published 2013).
Non-standard residues stand in square brackets, D forms with d. sY = N[C@@H](Cc1ccc(OS(=O)(=O)O)cc1)C(=O)O

Tests used:
[1] = system: Phoma nareissi; settings: in vitro, dose-dependent manner
[2] = system: Botrytis tulipae; settings: in vitro, dose-dependent manner

Substance | mycelium growth inhibition [1] | mycelium growth inhibition [2]
H-[sY]I[sY]T-OH [PSKβ] | inhibit in vitro the mycelium growth | inhibit in vitro the mycelium growth
H-[sY]I[sY]TQ-OH [PSKα] | inhibit in vitro the mycelium growth | inhibit in vitro the mycelium growth
